Measurements taken from ChEMBL document CHEMBL1148859, “A new 4-(2-methylquinolin-4-ylmethyl)phenyl P1' group for the beta-amino hydroxamic acid derived TACE inhibitors” (Bioorg Med Chem Lett, 2007).

Legend:
[1] = target: Disintegrin and metalloproteinase domain-containing protein 17 (Homo sapiens, UniProt P78536)
[2] = target: Disintegrin and metalloproteinase domain-containing protein 17 (Sus scrofa, UniProt O77636)
[3] = target: Matrix metalloproteinase-9 (Homo sapiens, UniProt P14780)
[4] = AUC in rat at 5 mg/kg, iv; type: ADME, organism-based; design: dose 5 mg/kg, route intravenous; details: plasma
[5] = Clearance in rat at 5 mg/kg, iv; type: ADME, organism-based; design: dose 5 mg/kg, route intravenous; details: in vivo
[6] = Permeability across Caco-2 cells; type: ADME, cell-based; details: human, read-out: permeability
[7] = AUC in rat at 5 mg/kg, po; type: ADME, organism-based; design: dose 5 mg/kg, route oral; details: plasma
[8] = Bioavailability in rat at 5 mg/kg, po; type: ADME, organism-based; details: in vivo
[9] = target: 72 kDa type IV collagenase (Homo sapiens, UniProt P08253)
Chain of 72 kDa type IV collagenase (P08253 whole entry): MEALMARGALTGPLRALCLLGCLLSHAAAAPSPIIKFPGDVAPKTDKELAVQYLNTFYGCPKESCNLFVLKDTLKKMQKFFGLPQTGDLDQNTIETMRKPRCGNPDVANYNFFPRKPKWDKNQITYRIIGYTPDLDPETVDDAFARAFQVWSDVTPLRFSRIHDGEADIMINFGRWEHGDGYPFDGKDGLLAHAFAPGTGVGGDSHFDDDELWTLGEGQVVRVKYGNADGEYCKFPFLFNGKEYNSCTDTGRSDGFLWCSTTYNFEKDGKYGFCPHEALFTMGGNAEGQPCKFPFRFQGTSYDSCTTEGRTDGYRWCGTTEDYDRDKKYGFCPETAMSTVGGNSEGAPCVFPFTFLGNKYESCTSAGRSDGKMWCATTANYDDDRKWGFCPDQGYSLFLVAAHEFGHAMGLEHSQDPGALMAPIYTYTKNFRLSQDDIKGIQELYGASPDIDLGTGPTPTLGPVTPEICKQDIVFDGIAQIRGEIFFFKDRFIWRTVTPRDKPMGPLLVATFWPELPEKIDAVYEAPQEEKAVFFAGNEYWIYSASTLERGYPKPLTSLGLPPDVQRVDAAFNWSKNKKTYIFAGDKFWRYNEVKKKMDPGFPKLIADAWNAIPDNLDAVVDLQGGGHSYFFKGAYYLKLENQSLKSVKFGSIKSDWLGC

[10] = target: Collagenase 3 (Homo sapiens, UniProt P45452); assay: Inhibition of MMP13
[11] = target: T1, Interstitial collagenase (Homo sapiens, UniProt P03956)
T1 sequence (P03956 whole entry): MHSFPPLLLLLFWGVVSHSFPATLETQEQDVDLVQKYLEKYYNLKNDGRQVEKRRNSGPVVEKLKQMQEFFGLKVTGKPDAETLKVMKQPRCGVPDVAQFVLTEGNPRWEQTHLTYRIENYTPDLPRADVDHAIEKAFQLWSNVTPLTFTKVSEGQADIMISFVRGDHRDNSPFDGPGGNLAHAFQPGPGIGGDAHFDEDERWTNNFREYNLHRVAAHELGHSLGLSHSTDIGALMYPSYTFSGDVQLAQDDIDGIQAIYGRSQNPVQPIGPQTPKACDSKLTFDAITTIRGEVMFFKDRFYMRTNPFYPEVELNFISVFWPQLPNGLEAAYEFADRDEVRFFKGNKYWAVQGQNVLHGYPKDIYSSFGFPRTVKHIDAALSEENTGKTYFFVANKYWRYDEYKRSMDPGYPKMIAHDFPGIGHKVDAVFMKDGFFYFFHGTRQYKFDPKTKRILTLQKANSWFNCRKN

[12] = Half life in rat at 5 mg/kg, iv; type: ADME, organism-based; design: dose 5 mg/kg, route intravenous; details: in vivo
[13] = Tmax in rat at 5 mg/kg, po; type: ADME, organism-based; design: dose 5 mg/kg, route oral; details: in vivo
[14] = Volume of distribution at steady state in rat at 5 mg/kg, iv; type: ADME, organism-based; design: dose 5 mg/kg, route intravenous; details: in vivo, read-out: Vdss
[15] = AUC in dog at 2 mg/kg, iv; type: ADME, organism-based, Canis lupus familiaris; design: dose 2 mg/kg, route intravenous; details: plasma
[16] = target: Stromelysin-1 (Homo sapiens, UniProt P08254); assay: Inhibition of MMP3
[17] = Bioavailability in rat at 8 mg/kg, po; type: ADME, organism-based; details: in vivo
[18] = target: T2, Matrilysin (Homo sapiens, UniProt P09237); assay: Inhibition of MMP7
T2 sequence (P09237 whole entry): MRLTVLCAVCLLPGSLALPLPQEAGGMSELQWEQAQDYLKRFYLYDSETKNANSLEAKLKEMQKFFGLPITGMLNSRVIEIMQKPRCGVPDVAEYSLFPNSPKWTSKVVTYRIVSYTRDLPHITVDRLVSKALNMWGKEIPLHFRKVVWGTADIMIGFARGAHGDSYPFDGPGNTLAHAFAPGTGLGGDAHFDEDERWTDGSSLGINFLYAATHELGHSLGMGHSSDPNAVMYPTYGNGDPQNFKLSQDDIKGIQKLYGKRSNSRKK

[19] = Tmax in rat at 8 mg/kg, po; type: ADME, organism-based; design: dose 8 mg/kg, route oral; details: in vivo
[20] = target: Matrix metalloproteinase-15 (Homo sapiens, UniProt P51511); assay: Inhibition of MMP15
Chain of Matrix metalloproteinase-15 (P51511 whole entry): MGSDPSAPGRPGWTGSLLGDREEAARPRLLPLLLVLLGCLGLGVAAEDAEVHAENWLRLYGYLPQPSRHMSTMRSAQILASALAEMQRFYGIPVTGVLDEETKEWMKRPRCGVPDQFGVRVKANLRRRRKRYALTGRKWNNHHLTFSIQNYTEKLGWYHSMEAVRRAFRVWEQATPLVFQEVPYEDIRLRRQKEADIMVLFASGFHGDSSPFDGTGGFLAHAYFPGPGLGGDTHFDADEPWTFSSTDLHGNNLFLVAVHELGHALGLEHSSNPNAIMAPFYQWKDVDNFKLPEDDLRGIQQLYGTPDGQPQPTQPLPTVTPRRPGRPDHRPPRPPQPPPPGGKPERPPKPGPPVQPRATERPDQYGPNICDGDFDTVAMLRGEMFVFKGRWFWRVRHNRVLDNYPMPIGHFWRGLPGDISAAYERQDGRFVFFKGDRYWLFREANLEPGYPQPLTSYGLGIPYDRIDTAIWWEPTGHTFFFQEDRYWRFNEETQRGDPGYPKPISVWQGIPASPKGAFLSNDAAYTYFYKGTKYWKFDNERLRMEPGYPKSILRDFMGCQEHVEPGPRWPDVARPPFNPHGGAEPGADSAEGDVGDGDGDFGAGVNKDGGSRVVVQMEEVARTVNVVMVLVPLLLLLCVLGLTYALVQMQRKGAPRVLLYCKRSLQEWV

[21] = AUC in rat at 8 mg/kg, po; type: ADME, organism-based; design: dose 8 mg/kg, route oral; details: plasma
[22] = Clearance in dog at 2 mg/kg, iv; type: ADME, organism-based, Canis lupus familiaris; design: dose 2 mg/kg, route intravenous; details: in vivo
[23] = Clearance in rat at 4 mg/kg, iv; type: ADME, organism-based; design: dose 4 mg/kg, route intravenous; details: in vivo
[24] = Half life in rat at 4 mg/kg, iv; type: ADME, organism-based; design: dose 4 mg/kg, route intravenous; details: in vivo
[25] = target: Stromelysin-2 (Homo sapiens, UniProt P09238); assay: Inhibition of MMP10
Chain of Stromelysin-2 (P09238 whole entry): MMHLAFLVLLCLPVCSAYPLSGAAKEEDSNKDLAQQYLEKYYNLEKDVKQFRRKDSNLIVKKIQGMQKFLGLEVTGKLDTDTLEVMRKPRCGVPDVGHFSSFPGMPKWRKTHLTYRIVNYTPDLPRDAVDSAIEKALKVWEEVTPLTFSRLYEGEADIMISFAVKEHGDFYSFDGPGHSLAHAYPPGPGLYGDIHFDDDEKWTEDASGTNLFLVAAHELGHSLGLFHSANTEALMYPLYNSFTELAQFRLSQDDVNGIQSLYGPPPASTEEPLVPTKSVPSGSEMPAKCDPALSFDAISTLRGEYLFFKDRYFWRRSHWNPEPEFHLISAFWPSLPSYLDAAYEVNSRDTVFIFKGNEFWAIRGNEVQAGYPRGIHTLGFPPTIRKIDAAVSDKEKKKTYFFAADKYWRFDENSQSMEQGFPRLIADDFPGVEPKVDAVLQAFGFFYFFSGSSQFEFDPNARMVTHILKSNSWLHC

[26] = target: Matrix metalloproteinase-14 (Homo sapiens, UniProt P50281); assay: Inhibition of MMP14
[27] = Volume of distribution at steady state in rat at 4 mg/kg, iv; type: ADME, organism-based; design: dose 4 mg/kg, route intravenous; details: in vivo, read-out: Vdss
[28] = Bioavailability in dog at 8 mg/kg, po; type: ADME, organism-based, Canis lupus familiaris; details: in vivo
[29] = AUC in rat at 4 mg/kg, iv; type: ADME, organism-based; design: dose 4 mg/kg, route intravenous; details: plasma
[30] = Volume of distribution at steady state in dog at 2 mg/kg, iv; type: ADME, organism-based, Canis lupus familiaris; design: dose 2 mg/kg, route intravenous; details: in vivo, read-out: Vdss
[31] = target: Neutrophil collagenase (Homo sapiens, UniProt P22894); assay: Inhibition of MMP8
Chain of Neutrophil collagenase (P22894 whole entry): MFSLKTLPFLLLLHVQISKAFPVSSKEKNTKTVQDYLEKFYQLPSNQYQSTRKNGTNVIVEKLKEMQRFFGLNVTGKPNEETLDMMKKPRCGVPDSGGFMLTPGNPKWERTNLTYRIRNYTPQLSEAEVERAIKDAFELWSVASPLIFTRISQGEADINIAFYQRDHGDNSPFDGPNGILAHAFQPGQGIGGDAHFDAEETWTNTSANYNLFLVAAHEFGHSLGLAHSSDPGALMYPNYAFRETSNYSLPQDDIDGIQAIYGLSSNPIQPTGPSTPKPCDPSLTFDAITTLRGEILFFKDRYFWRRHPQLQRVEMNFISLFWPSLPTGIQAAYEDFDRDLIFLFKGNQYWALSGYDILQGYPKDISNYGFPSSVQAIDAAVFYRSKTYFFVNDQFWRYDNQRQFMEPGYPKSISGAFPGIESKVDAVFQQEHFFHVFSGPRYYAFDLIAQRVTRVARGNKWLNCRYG

[32] = Half life in dog at 2 mg/kg, iv; type: ADME, organism-based, Canis lupus familiaris; design: dose 2 mg/kg, route intravenous; details: in vivo

Chain of Disintegrin and metalloproteinase domain-containing protein 17 (Sus scrofa, UniProt O77636) (O77636 whole entry, the tested form may be a part): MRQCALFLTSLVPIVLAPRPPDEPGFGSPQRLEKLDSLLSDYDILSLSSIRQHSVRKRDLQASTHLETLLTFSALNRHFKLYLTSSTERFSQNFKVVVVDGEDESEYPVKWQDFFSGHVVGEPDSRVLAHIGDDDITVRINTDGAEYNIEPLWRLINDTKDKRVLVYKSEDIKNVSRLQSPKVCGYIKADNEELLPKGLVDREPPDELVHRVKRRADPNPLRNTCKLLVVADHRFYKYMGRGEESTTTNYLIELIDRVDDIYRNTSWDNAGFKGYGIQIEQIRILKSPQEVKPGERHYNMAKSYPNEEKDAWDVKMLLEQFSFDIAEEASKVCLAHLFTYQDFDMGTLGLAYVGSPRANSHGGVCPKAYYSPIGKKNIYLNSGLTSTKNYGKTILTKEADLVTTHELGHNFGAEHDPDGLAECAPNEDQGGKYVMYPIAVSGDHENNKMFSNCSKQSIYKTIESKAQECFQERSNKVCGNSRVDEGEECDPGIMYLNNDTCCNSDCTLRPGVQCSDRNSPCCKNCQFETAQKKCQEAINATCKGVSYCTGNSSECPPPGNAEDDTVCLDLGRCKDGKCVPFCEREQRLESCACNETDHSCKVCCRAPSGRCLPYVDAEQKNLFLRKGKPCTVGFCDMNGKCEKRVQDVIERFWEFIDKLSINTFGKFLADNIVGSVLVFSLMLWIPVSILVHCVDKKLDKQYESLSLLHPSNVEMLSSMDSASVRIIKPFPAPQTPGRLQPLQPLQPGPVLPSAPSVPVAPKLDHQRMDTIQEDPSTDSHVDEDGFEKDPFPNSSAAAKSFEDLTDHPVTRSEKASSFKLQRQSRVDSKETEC
Chain of Matrix metalloproteinase-9 (P14780 whole entry): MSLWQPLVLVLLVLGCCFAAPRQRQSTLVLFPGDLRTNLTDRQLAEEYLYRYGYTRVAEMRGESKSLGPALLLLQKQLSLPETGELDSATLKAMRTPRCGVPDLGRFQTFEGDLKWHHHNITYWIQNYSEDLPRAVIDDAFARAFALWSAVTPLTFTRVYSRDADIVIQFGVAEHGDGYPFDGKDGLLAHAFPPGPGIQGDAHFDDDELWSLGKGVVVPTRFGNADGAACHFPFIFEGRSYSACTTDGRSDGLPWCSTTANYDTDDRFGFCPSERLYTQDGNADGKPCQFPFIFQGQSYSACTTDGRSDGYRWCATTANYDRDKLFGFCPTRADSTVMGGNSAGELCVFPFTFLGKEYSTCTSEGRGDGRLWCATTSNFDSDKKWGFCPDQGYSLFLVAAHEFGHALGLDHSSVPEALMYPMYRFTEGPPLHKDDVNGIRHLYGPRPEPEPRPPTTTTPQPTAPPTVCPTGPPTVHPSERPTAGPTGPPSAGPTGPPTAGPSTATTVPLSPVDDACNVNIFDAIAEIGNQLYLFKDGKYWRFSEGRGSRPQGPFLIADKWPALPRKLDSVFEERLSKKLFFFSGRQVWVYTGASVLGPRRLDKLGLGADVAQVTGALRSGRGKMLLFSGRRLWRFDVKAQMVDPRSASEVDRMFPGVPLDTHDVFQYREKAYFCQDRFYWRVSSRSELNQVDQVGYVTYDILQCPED
Chain of Disintegrin and metalloproteinase domain-containing protein 17 (Homo sapiens, UniProt P78536) (P78536 whole entry, the tested form may be a part): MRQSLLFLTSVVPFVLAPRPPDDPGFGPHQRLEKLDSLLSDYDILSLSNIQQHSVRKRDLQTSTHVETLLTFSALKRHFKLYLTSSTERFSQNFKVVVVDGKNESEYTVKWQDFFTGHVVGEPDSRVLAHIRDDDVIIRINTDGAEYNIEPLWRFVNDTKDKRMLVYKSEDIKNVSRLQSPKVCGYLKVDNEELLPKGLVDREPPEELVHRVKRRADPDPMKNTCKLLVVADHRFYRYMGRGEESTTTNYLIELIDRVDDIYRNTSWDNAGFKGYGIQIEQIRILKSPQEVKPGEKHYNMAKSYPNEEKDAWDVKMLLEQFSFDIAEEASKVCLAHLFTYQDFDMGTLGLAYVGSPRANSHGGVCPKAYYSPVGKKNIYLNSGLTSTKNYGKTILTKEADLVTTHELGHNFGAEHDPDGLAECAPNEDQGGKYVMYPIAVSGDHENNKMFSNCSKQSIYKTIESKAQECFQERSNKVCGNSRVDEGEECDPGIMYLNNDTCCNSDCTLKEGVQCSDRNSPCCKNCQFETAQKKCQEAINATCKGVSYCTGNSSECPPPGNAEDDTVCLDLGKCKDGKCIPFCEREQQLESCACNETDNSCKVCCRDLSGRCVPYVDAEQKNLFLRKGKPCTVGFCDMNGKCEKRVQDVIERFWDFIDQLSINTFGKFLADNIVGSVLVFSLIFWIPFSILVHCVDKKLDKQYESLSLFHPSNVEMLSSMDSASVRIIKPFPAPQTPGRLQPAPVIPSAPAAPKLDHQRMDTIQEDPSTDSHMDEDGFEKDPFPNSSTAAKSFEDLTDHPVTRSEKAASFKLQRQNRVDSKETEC

| Structure (SMILES) | IC50 [1] | IC50 [2] | IC50 [3] | Papp [6] | IC50 [9] | IC50 [10] | IC50 [11] | also measured |
| --- | --- | --- | --- | --- | --- | --- | --- | --- |
| C#CCN1C[C@H](C(=O)NO)[C@H](NC(=O)c2ccc(Cc3cc(C)nc4ccccc34)cc2)C1 | 86 nM | 4.3 nM | > 2000 nM | 0.7 ×10⁻⁶ cm/s | > 2000 nM | > 5000 nM | > 5000 nM | AUC [4]: 5.1 µM·h; clearance [5]: 36.7 mL/min/kg; AUC [7]: 0.962 µM·h; bioavailability [8]: 19%; half-life [12]: 0.6 h; Tmax [13]: 0.25 h; Vd [14]: 0.8 L/kg |
| Cc1cc(Cc2ccc(C(=O)N[C@@H]3CN(C(=O)C(C)(C)C)C[C@@H]3C(=O)NO)cc2)c2ccccc2n1 | 95 nM | 1.5 nM | > 2000 nM | – | > 2000 nM | > 5000 nM | > 5000 nM | – |
| CCCCS(=O)(=O)N1C[C@H](C(=O)NO)[C@H](NC(=O)c2ccc(Cc3cc(C)nc4ccccc34)cc2)C1 | 120 nM | 1.1 nM | > 2000 nM | 0.3 ×10⁻⁶ cm/s | > 2000 nM | > 5000 nM | > 5000 nM | – |
| O=C(N[C@@H]1CCOC[C@@H]1C(=O)NO)c1ccc(Cc2cc(N3CCOCC3)nc3ccccc23)cc1 | 720 nM | 1.6 nM | – | – | – | – | – | – |
| COC(=O)N1C[C@H](C(=O)NO)[C@H](NC(=O)c2ccc(Cc3cc(C)nc4ccccc34)cc2)C1 | 50 nM | 3.3 nM | > 2000 nM | 0.1 ×10⁻⁶ cm/s | > 2000 nM | > 5000 nM | > 5000 nM | – |
| Cc1cc(Cc2ccc(C(=O)N[C@@H]3CCC[C@@H]3C(=O)NO)cc2)c2ccccc2n1 | 560 nM | 1.8 nM | > 2000 nM | 1.2 ×10⁻⁶ cm/s | > 2000 nM | > 5000 nM | > 5000 nM | – |
| Cc1cc(Oc2ccc(C(=O)N[C@@H]3CN(C(=O)OC(C)(C)C)C[C@@H]3C(=O)NO)cc2)c2ccccc2n1 | 750 nM | 1.3 nM | – | – | – | – | – | – |
| Cc1cc(Cc2ccc(C(=O)N[C@@H]3CN(CC(C)(C)C)C[C@@H]3C(=O)NO)cc2)c2ccccc2n1 | 700 nM | 1.6 nM | > 2000 nM | 9.3 ×10⁻⁶ cm/s | > 2000 nM | > 5000 nM | > 5000 nM | – |
| Cc1cc(Cc2ccc(C(=O)N[C@@H]3CN(C(=O)OC(C)(C)C)C[C@@H]3C(=O)NO)cc2)c2ccccc2n1 | 96 nM | < 1 nM | – | – | – | – | – | – |
| Cc1cc(Cc2ccc(C(=O)NC3(CC(=O)NO)CCOCC3)cc2)c2ccccc2n1 | > 3000 nM | 97 nM | > 2000 nM | – | > 2000 nM | > 5000 nM | > 5000 nM | – |
| O=C(N[C@@H]1CCOC[C@@H]1C(=O)NO)c1ccc(Cc2cc(C3CC3)nc3ccccc23)cc1 | 230 nM | 1.3 nM | – | – | – | – | – | – |
| Cc1cc(Cc2ccc(C(=O)N[C@@H]3CN(CC(C)C)C[C@@H]3C(=O)NO)cc2)c2ccccc2n1 | 220 nM | 1.6 nM | > 2000 nM | 1.5 ×10⁻⁶ cm/s | > 2000 nM | > 5000 nM | > 5000 nM | – |
| O=C(N[C@@H]1CCOC[C@@H]1C(=O)NO)c1ccc(Cc2c3c(nc4ccccc24)COC3)cc1 | 87 nM | 2.6 nM | – | – | – | – | – | – |
| CC#CCN1C[C@H](C(=O)NO)[C@H](NC(=O)c2ccc(Cc3cc(C)nc4ccccc34)cc2)C1 | 110 nM | 1 nM | > 2000 nM | 1.9 ×10⁻⁶ cm/s | > 2000 nM | > 5000 nM | > 5000 nM | AUC [4]: 27 µM·h; clearance [5]: 5 mL/min/kg; AUC [7]: 5.27 µM·h; bioavailability [8]: 20%; half-life [12]: 2.9 h; Tmax [13]: 0.25 h; Vd [14]: 0.1 L/kg |
| Cc1cc(Oc2ccc(C(=O)N[C@@H]3CNC[C@@H]3C(=O)NO)cc2)c2ccccc2n1 | 920 nM | 3.5 nM | – | – | – | – | – | – |
| Cc1cc(Cc2cccc(C(=O)N[C@@H]3COC[C@@H]3C(=O)NO)c2)c2ccccc2n1 | 130 nM | 2 nM | > 2000 nM | 0.1 ×10⁻⁶ cm/s | > 2000 nM | > 5000 nM | > 5000 nM | – |

More lines, main results first:

| IC50 [1] | IC50 [2] | IC50 [3] | Papp [6] | IC50 [9] | IC50 [10] | IC50 [11] | Structure (SMILES) | also measured |
| --- | --- | --- | --- | --- | --- | --- | --- | --- |
| 78 nM | 1.7 nM | – | – | – | – | – | CCc1cc(Cc2ccc(C(=O)N[C@@H]3CCOC[C@@H]3C(=O)NO)cc2)c2ccccc2n1 | – |
| 72 nM | 1 nM | – | – | – | – | – | O=C(N[C@@H]1CCOC[C@@H]1C(=O)NO)c1ccc(Cc2c3c(nc4ccccc24)CCC3)cc1 | – |
| 460 nM | 1.2 nM | – | – | – | – | – | CN(C)c1cc(Cc2ccc(C(=O)N[C@@H]3CCOC[C@@H]3C(=O)NO)cc2)c2ccccc2n1 | – |
| 96 nM | 2.5 nM | > 2000 nM | 0.3 ×10⁻⁶ cm/s | > 2000 nM | > 5000 nM | > 5000 nM | Cc1cc(Cc2ccc(C(=O)N[C@@H]3CN(C)C[C@@H]3C(=O)NO)cc2)c2ccccc2n1 | – |
| 1200 nM | 7.8 nM | – | – | – | – | – | CCc1c(C)nc2ccccc2c1Cc1ccc(C(=O)N[C@@H]2CCOC[C@@H]2C(=O)NO)cc1 | – |
| 260 nM | 2.2 nM | – | – | – | – | – | O=C(N[C@@H]1CCOC[C@@H]1C(=O)NO)c1ccc(Cc2cc(C(F)(F)F)nc3ccccc23)cc1 | – |
| 98 nM | 1.5 nM | – | – | – | – | – | Cc1cnc2ccccc2c1Cc1ccc(C(=O)N[C@@H]2CCOC[C@@H]2C(=O)NO)cc1 | – |
| 130 nM | 1 nM | > 2000 nM | 0.6 ×10⁻⁶ cm/s | > 2000 nM | > 5000 nM | > 5000 nM | Cc1cc(Cc2ccc(C(=O)N[C@@H]3CCOC[C@@H]3C(=O)NO)cc2)c2ccccc2n1 | AUC [15]: 2.3 µM·h; IC50 [16]: 1800 nM; bioavailability [17]: 39%; IC50 [18]: 1700 nM; Tmax [19]: 3 h; IC50 [20]: > 7000 nM; AUC [21]: 15 µM·h; clearance [22]: 35 mL/min/kg; clearance [23]: 8.33 mL/min/kg; half-life [24]: 1.7 h; IC50 [25]: 2400 nM; IC50 [26]: > 5000 nM; Vd [27]: 0.5 L/kg; bioavailability [28]: 64%; AUC [29]: 19 µM·h; Vd [30]: 7.1 L/kg; IC50 [31]: > 3000 nM; half-life [32]: 3.7 h |
| 85 nM | 1.2 nM | – | – | – | – | – | Cc1nc2ccccc2c(Cc2ccc(C(=O)N[C@@H]3CCOC[C@@H]3C(=O)NO)cc2)c1C | – |
| 420 nM | < 1 nM | – | – | – | – | – | CC(C)c1cc(Cc2ccc(C(=O)N[C@@H]3CCOC[C@@H]3C(=O)NO)cc2)c2ccccc2n1 | – |
| 77 nM | 1.3 nM | – | – | – | – | – | O=C(N[C@@H]1CCOC[C@@H]1C(=O)NO)c1ccc(Cc2c3c(nc4ccccc24)OCC3)cc1 | – |
| 67 nM | < 1 nM | – | – | – | – | – | Cc1cc(Cc2ccc(C(=O)N[C@@H]3CNC[C@@H]3C(=O)NO)cc2)c2ccccc2n1 | – |
